Source: patent US10668051B2, “Modulators of calcium release-activated calcium channel” (Rhizen Pharmaceuticals SA, priority 2009, dated 2020)

Tests used:
male DBA/1 Ola HSD mice = test: Collagen-induced arthritis in male DBA/1 Ola HSD mice; assay type: in vivo; conditions: 10 mg/kg b.wt, daily po, qd
Protocol: v. Collagen-induced arthritis in male DBA/1 Ola HSD mice: Collagen induced arthritis in rodent models have been widely used to illustrate and understand the development of the disease besides serving as a surrogate for validation of therapeutic targets for human rheumatoid arthritis. Mice were anesthetized with Isoflurane and given 150 μl of Bovine Type II collagen in Freund's complete adjuvant injections (day 0 and day 21). Treatment was initiated on study day 0 and continued once daily, every day (po, qd). Starting on day 18, clinical scores were given daily for each of the paws (right front, left front, right rear, left rear) and continued till the day of sacrifice (day 34). Daily administration of the test compound (Example 69) at 10 mg/kg b.wt alleviated arthritic symptoms, disease progression, and incidence by 30% compared to the control animals.

Guinea Pigs = test: OVA-Induced Asthma in Guinea Pigs; assay type: in vivo; conditions: 10 mg/kg b.wt, oral, 1 h before OVA challenge
Protocol: iv. OVA-Induced Asthma in Guinea Pigs: Pulmonary eosinophilia and airway remodelling in conjunction with altered neural control of airway tone and airway epithelial desquamation contributes to Airway Hyper-responsiveness (AHR) in asthma. For determination of eosinophil reduction, animals were sensitized with OVA on d0, d7, and d14 followed by another round (0.1% w/v) through inhalation on d19 & d20. Compounds were administered orally 1 h before OVA challenge (0.3%). BAL fluid was collected on d22 for differential count and cytokine estimation. For determination of change in respiratory parameters, animals were subjected to whole body plethysmography immediately after ova challenge.

Female Balb/C mice = test: Concanavalin (Con) A induced Hepatitis in Female Balb/C mice; assay type: in vivo; conditions: 10 mg/kg b.wt, oral, 1 hour prior to Con A; blood after 24 hours
Protocol: i. Concanavalin (Con) A induced Hepatitis in Female Balb/C mice: Con A is often used to prepare experimental animals with high levels of cytotoxic T-lymphocytes, because these cells are involved in the development of viral infections in humans. In this model, animals were administered test compounds orally 1 hour prior to intravenous administration of Con A. Blood samples were collected after 24 hours for determination of Serum glutamic oxaloacetic transaminase (SGOT) and Serum glutamic pyruvic transaminase (SGPT) in serum. Results indicated >85% reduction in serum SGOT & SGPT upon administration of the test compound (example 69) at 10 mg/kg b.wt.

CRAC channels [1] = target: T1, CRAC channels (Homo sapiens (Human), UniProt Q96D31); test: In-vitro CRAC channel inhibition assay in Jurkat cells (thapsigargin-induced calcium influx); assay type: cell-based
T1 sequence (Q96D31 whole entry): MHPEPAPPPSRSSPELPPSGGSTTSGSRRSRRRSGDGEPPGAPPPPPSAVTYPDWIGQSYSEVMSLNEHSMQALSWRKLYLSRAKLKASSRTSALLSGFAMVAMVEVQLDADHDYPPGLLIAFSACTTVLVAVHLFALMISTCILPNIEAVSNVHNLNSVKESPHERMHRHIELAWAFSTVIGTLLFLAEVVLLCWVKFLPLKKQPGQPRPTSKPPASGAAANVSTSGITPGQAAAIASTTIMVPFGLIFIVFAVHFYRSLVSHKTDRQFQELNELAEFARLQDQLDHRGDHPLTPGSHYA
Procedure, shortened: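 Jurkat cells given test compounds in Ca2+/Mg2+-free Hanks buffer for 15 min, then thapsigargin (1 μM final) for 15 min to deplete ER stores. IC50 from percent inhibition of thapsigargin-induced Ca2+ influx.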

[2] = test system: CRAC channels over the voltage operated channels (VOC); conditions: Yasurio Yonetoky et al.; cited from earlier work
IL-2 [3] = test: Inhibition of cytokine release in Human Whole Blood: IL-2; assay type: cell-based; conditions: Con A + PMA, 20 h, ELISA, read-out: IC 50 Human Whole Blood IL-2
Protocol: (§1) 2. In Vitro Inhibition of Cytokine Release in Jurkat Cells, Human Whole Blood and Peripheral Blood Mononuclear Cells (PBMC).
(§2) Inhibition of cytokine IL-2, IL-4, IL-5 and TNF α was determined as described below. • a. Inhibition of IL-2 in Jurkat cells: Cells were incubated with desired concentrations of the inhibitor for 15 min. Cytokine release was induced by the addition of Concanavalin A (25 μg/ml)+Phorbol Myristate Acetate (50 ng/ml) for IL-2 & TNFα or with Phytohemagglutinin ([…]) for IL-4 & IL-5 and incubated at 37° C. in an atmosphere containing […]. Supernatant was collected after 20 h (IL-2 & TNFα) or 48 h (IL-4 & IL-5) for estimation of cytokines by ELISA. Data were analysed using GraphPad Prism. IC50 values for each compound were determined based on the percent inhibition due to the test compound compared to the control. • b. Inhibition of cytokine release in Human Whole Blood (HWB): Freshly collected HWB was diluted with RPMI medium (1:4.5) and added to a 96-well plate. Wells were incubated with desired concentrations of the inhibitor for 15 min. Cytokine release was induced by the addition of Concanavalin A (25 μg/ml)+Phorbol Myristate Acetate (50 ng/ml) for IL-2 & TNFα or with Phytohemagglutinin (5 μg/ml) for IL-4 & IL-5 and incubated at 37° C. in an atmosphere containing […]. Supernatant was collected after 20 h (IL-2 & TNFα) or 48 h (IL-4 & IL-5) for estimation of cytokines by ELISA. Data were analysed using GraphPad Prism. IC50 values for each compound were determined based on the percent inhibition due to the test compound compared to the control. • c. Inhibition of cytokine release in PBMC: PBMC from freshly collected HWB were isolated by density gradient using Histopaque and seeded in a 96-well plate. Cells were incubated with desired concentrations of the inhibitor for 15 min. Cytokine release was induced by the addition of Concanavalin A (25 μg/ml)+Phorbol Myristate Acetate (50 ng/ml) for IL-2 & TNFα or with Phytohemagglutinin (5 μg/ml) for IL-4 & IL-5 and incubated at 37° C. in an atmosphere containing […]. Supernatant was collected after 20 h (IL-2 & TNFα) or 48 h (IL-4 & IL-5) for estimation of cytokines by ELISA. Data were analysed using GraphPad Prism. IC50 values for each compound were determined based on the percent inhibition due to the test compound compared to the control.

TNFα [4] = test: Inhibition of cytokine release in PBMC: TNFα; assay type: cell-based; conditions: Homo sapiens, Con A + PMA, 20 h, ELISA, read-out: IC 50 PBMC TNFα
Protocol: as §1, §2

[5] = test system: NCI-H460 cancer cell line; test: In-vitro cell proliferation assay in NCI-H460 cancer cell line (MTT); assay type: cell-based; conditions: Homo sapiens, 10 μM, 48 h
Protocol: 1C. In-Vitro Cell Proliferation Assay in NCI-H460 Cancer Cell Line (Anticancer Activity)
Growth inhibition assays were carried out using 10% FBS supplemented media. Cells were seeded at a concentration of 5000 cells/well in a 96-well plate. Test compound at a concentration range from 0.01 to 10000 nM were added after 24 h. Growth was assessed using the 3-[4,5-dimethylthiazol-2-yl]-2,5-diphenyltetrazolium bromide (MTT) dye reduction test at 0 h (prior to the addition of the test compound) and 48 h after the addition of test compound. Absorbance was read on a Fluostar Optima (BMG Labtech, Germany) at a wave length of 450 nm. Data were analysed using GraphPad Prism. IC-50 for each compound was determined based on the % inhibition due to the test compound compared to the control.
For methods of cell proliferation assay, see, for example, Mosmann. T., Journal of Immunological Methods, 65(1-2), 55-63, (1983).

IL-4 [6] = test: Inhibition of cytokine release in PBMC: IL-4; assay type: cell-based; conditions: Homo sapiens, Phytohemagglutinin, 48 h, ELISA, read-out: IC 50 PBMC IL-4
Protocol: as §1, §2

TNFα [7] = test: Inhibition of cytokine release in Human Whole Blood: TNFα; assay type: cell-based; conditions: Con A + PMA, 20 h, ELISA, read-out: IC 50 Human Whole Blood TNFα
Protocol: as §1, §2

IL-2 [8] = test: Inhibition of cytokine release in PBMC: IL-2; assay type: cell-based; conditions: Homo sapiens, Con A + PMA, 20 h, ELISA, read-out: IC 50 PBMC IL-2
Protocol: as §1, §2

IL-5 [9] = test: Inhibition of cytokine release in PBMC: IL-5; assay type: cell-based; conditions: Homo sapiens, Phytohemagglutinin, 48 h, ELISA, read-out: IC 50 PBMC IL-5
Protocol: as §1, §2

CRAC channels [10] = target: T1, CRAC channels; test: In-vitro CRAC channel inhibition assay in NCI-H460 cancer cell line (Ca assay); assay type: cell-based; conditions: thapsigargin-induced calcium influx, NCI-H460 cells
Protocol: 1B. In-Vitro CRAC Channel Inhibition Assay in NCI-H460 Cancer Cell Line
Inhibition of CRAC channels was determined following thapsigargin (Sigma, Cat #T9033) induced endoplasmic calcium release in NCI-H460 cells (National Centre For Cell Science (NCCS), Pune).
Cells (30,000 per well) were plated overnight in complete RPMI medium. Medium was substituted with Ca^2+ and Mg^2+ free Hanks buffer and Fluo-8 NW dye (ABD Bioquest, Inc., Sunnyvale, Calif.) loading solution in 96-well black plate. Plate was incubated at 37° C./5% CO2 for 30 min followed by further 15 min incubation at room temperature. Test compounds (DMSO stocks diluted in Ca^2+ and Mg^2+ free Hanks buffer) at desired concentrations were added to the wells and incubated for 15 min. Thapsigargin (1 μM final concentration) was added to the wells and incubated for 15 min to inhibit the Sarco-endoplasmic reticulum Ca^2+ ATPase pump thereby depleting endoplasmic calcium and raising cytosolic calcium concentrations. Store-operated calcium entry was initiated by adding extracellular Ca^2+ to a final concentration of 2.5 mM. Fluorescence was monitored over 30 min on a plate reader (BMG Labtech., Germany) with excitation at 485 nm and an emission wavelength at 520 nm. Data were analyzed using GraphPad Prism. IC50 for each compound was determined based on the percent inhibition of Thapsigargin-induced calcium influx into cells.

IL-5 [11] = test: Inhibition of cytokine release in Human Whole Blood: IL-5; assay type: cell-based; conditions: Phytohemagglutinin, 48 h, ELISA, read-out: IC 50 Human Whole Blood IL-5
Protocol: as §1, §2

IL-2 [12] = test: Inhibition of IL-2 in Jurkat cells; assay type: cell-based; conditions: Homo sapiens, Con A + PMA, 20 h, ELISA, read-out: IC 50 Jurkat IL-2
Protocol: as §1, §2

IL-4 [13] = test: Inhibition of cytokine release in Human Whole Blood: IL-4; assay type: cell-based; conditions: Phytohemagglutinin, 48 h, ELISA, read-out: IC 50 Human Whole Blood IL-4
Protocol: as §1, §2

SMILES	inhibition at 1 µM (CRAC channels [1]) [%]	IC50 (IL-2 [3]) [nM]	IC50 (TNFα [4]) [nM]	IC50 (IL-4 [6]) [nM]	IC50 (TNFα [7]) [nM]	IC50 (IL-2 [8]) [nM]	IC50 (IL-5 [9]) [nM]	inhibition at 1 µM (CRAC channels [10]) [%]	IC50 (IL-5 [11]) [nM]	IC50 (IL-2 [12]) [nM]	IC50 (IL-4 [13]) [nM]	alleviation of arthritic symptoms, disease progression, and incidence compared to the control animals (male DBA/1 Ola HSD mice) [%]	change in respiratory parameters (whole body plethysmography) (Guinea Pigs)	reduction in serum SGOT (Female Balb/C mice) [%]	reduction in serum SGPT (Female Balb/C mice) [%]	selective index CRAC channels over VOC [2]	inhibition at 10 µM [5] [%]
Cc1ncc(C(=O)Nc2ccc(-n3nc(C(F)(F)F)cc3C3CC3)cc2)c(C)n1 [Example 69, N-{4-[5-cyclopropyl-3-(trifluoromethyl)-1H-pyrazol-1-yl]phenyl}-2,4-dimethylpyrimidine-5-carboxamide]	74.6	–	–	–	–	–	–	–	–	–	–	30	improvement in respiration	> 85	> 85	–	–
Cc1nnsc1C(=O)Nc1ccc(-n2nc(C(F)(F)F)cc2C(F)(F)F)cc1 [YM-58483]	–	–	–	–	–	–	–	–	–	–	–	–	–	–	–	31	–
Cc1ncsc1C(=O)Nc1ccc(-n2nc(C(F)(F)F)cc2C2CC2)cc1 [Example 53, N-{4-[5-cyclopropyl-3-(trifluoromethyl)-1H-pyrazol-1-yl]phenyl}-4-methylthiazole-5-carboxamide]	99.4	274	121	79.9	125	21.3	146	84.6	61.8	–	–	–	–	–	–	–	22
Cc1ncncc1C(=O)Nc1ccc(-n2nc(C(F)(F)F)cc2C2CC2)c(F)c1 [Example 93, N-{4-[5-cyclopropyl-3-(trifluoromethyl)-1H-pyrazol-1-yl]-3-fluorophenyl}-4-methylpyrimidine-5-carboxamide]	90	65.1	66.8	264	148	52.9	140	–	173	140	142	–	–	–	–	–	–

Continued, in another order:

inhibition at 1 µM (CRAC channels [1]) [%]	IC50 (IL-2 [3]) [nM]	IC50 (TNFα [4]) [nM]	IC50 (IL-4 [6]) [nM]	IC50 (TNFα [7]) [nM]	IC50 (IL-2 [8]) [nM]	IC50 (IL-5 [9]) [nM]	inhibition at 1 µM (CRAC channels [10]) [%]	IC50 (IL-5 [11]) [nM]	IC50 (IL-2 [12]) [nM]	IC50 (IL-4 [13]) [nM]	SMILES	alleviation of arthritic symptoms, disease progression, and incidence compared to the control animals (male DBA/1 Ola HSD mice) [%]	change in respiratory parameters (whole body plethysmography) (Guinea Pigs)	reduction in serum SGOT (Female Balb/C mice) [%]	reduction in serum SGPT (Female Balb/C mice) [%]	selective index CRAC channels over VOC [2]	inhibition at 10 µM [5] [%]
86.7	77.8	–	–	–	31.4	–	–	56.4	–	256	O=C(Nc1c(F)cccc1F)c1ccc(-n2nc(C(F)(F)F)cc2C2CC2)c(F)c1 [Example 100, 4-[5-cyclopropyl-3-(trifluoromethyl)-1H-pyrazol-1-yl]-N-(2,6-difluorophenyl)-3-fluorobenzamide]	–	–	–	–	–	–
100	229	–	–	–	–	–	–	–	–	260	O=C(Nc1ccc(-n2nc(C(F)(F)F)cc2C2CC2)c(F)c1)c1c(F)cccc1F [Example 88, N-{4-[5-cyclopropyl-3-(trifluoromethyl)-1H-pyrazol-1-yl]-3-fluorophenyl}-2,6-difluorobenzamide]	–	–	–	–	–	–
96.2	138	16.5	55.8	38.4	17.5	20.6	–	19.8	–	143	O=C(Nc1ccc(-n2nc(C(F)(F)F)cc2C2CC2)nc1)c1c(F)cccc1F [Example 108, N-{6-[5-cyclopropyl-3-(trifluoromethyl)-1H-pyrazol-1-yl]pyridin-3-yl}-2,6-difluorobenzamide]	–	–	–	–	–	–
